Read-outs that look alike come from different tables or passages of the source. Values belong to the molecule of their own block, whether it stands above or below them.
Legend:
MCF7 = experiment: Inhibition of MCF7 breast tumor cell growth in vitro (72 hour exposure, MTT tetrazolium dye assay); assay type: cell-based, human
Method: The MCF7 cell line is a human tumor cell line. This cell line was cultured in MEM( (Eagles) media in a 5% C0^2 atmosphere with 10% fetal calf serum that had been washed twice with dextran coated charcoal to reduce endogenous estrogen levels. The media was supplemented with 1 mM sodium pyruvate and 100 µm non-essential amino acids. The cell line was screened routinely for myoplasma contamination using the GenProbe kit (Fisher). Cells were trypsinized and plated at a density of 5,000 cells/well in 96 well microtiter plates and allowed to attach and recover for 24 hours.
The media was removed by aspiration and replaced with filter sterilized drug (concentration from 10-^4 M to […]) in media. The cells were incubated for 72 hours and then stained using the MTT tetrazolium dye assay of Mosmann^36 except that after the media was removed, the blue formazan product was solubilized in 50 µl/well DMSO.

estrogen receptor [1] = target: T1, estrogen receptor (Sus scrofa, UniProt Q29040); experiment: biochemical
T1 sequence (Q29040 1-595): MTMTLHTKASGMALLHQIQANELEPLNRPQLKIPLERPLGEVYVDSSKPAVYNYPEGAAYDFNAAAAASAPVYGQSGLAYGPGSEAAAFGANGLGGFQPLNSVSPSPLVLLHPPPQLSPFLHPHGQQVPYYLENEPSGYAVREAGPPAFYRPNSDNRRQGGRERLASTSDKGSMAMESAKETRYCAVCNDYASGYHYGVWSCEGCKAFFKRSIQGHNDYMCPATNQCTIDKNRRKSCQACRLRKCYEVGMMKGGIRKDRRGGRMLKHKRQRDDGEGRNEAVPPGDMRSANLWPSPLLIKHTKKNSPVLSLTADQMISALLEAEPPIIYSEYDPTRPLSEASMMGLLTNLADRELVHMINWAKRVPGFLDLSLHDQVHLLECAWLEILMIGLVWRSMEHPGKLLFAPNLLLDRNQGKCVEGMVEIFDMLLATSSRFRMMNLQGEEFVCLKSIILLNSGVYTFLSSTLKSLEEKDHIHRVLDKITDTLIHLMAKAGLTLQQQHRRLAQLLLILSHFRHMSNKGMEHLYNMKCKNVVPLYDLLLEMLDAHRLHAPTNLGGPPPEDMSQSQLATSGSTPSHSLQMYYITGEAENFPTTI

estrogen receptor [2] = target: T1, estrogen receptor; conditions: for Ki: [^3H]estradiol 5 nM, 4°C
[3] = In vivo tissue uptake of ^131I-IMTX (trans) in rat
[4] = In vivo biodistribution of N,N-diethyl-[^18F]fluoromethyltamoxifen in rats; conditions: rat, iv; for tissue uptake at 2 h / tissue uptake at 4 h: primed with 60 μg of estradiol for 3 days
Method: Four groups of rats (150-200 gm, N = 4/group) were anesthetized with ketamine (10-15 mg/rat). […]. Tissue uptake of ^18F-tracer was determined at 2 and 4 hours (h). To ascertain whether the ^18 F-tracer uptake was mediated by a receptor-process, one group of rats was given ^18F-tracer without priming with estradiol; and another group of rats was given unlabeled estradiol (30 µg/rat) together with ^18 F-tracer. […]

[5] = Uterus to muscle ratio (tissue uptake, method not described); conditions: in vivo
[6] = Homo sapiens, MCF7, 72 h, Table 6, 72 hour exposure, average of three experiments, read-out: IC50 Dose
[7] = Homo sapiens, MCF7, text values b172, read-out: IC50 MCF7 cell inhibition (converted)
[8] = Table 6, relative potency, IC50 ratio between tamoxifen and competitor, tamoxifen = 100
[9] = IC50(M), [^3H]estradiol 5 nM, 4°C
[10] = IC50(uM), concentration required to decrease bound [^3H]estradiol by 50%, average of three experiments
[11] = IC-50 estrogen receptor binding, [^3H]estradiol (5 nM)
[12] = Homo sapiens, MCF7, 72 h, read-out: IC50 Dose (µM)
[13] = IC50 ratio between tamoxifen and competitor, tamoxifen printed as 1
[14] = 2h(BLOCK): coinjected with estradiol (30μg)
[15] = 2h, without prime with estradiol (control)
[16] = comparative compounds IV and VII, average of three experiments, read-out: IC50 Dose
[17] = comparative compounds IV and VII, relative potency, tamoxifen = 100

Molecule: CCN(CC)CCOc1ccc(/C(=C(\CCCI)c2ccccc2)c2ccccc2)cc1 [X (cis), N,N-diethyl-iodomethyltamoxifen]
IC50 (MCF7; [6]): 2.36 µM
IC50 (MCF7; [7]): 2.4 µM
RP (MCF7; [8]): 466
Ki (estrogen receptor [1]): 1.5 µM
IC50 (estrogen receptor [1]; [9]): 3e-06 M
IC50 (estrogen receptor [1]; [10]): 3e-06 M
IC50 (estrogen receptor [1]; [11]): 3e-06 M
RBA (estrogen receptor [2]): 10
RBA* (estrogen receptor [2]): 1,000
fold higher affinity for the estrogen receptor than native tamoxifen (estrogen receptor [2]): 10 fold
Ki (estrogen receptor [2]): 1.5 µM

Molecule: CCN(CC)CCOc1ccc(/C(=C(/CCCBr)c2ccccc2)c2ccccc2)cc1 [Compound XI (trans), 1-[4-(2-Diethylaminoethoxy)phenyl]-1,2-diphenyl-5-bromo-1-entene]
IC50 (MCF7; [12]): 4.9 µM
RP (MCF7; [8]): 298
IC50 (estrogen receptor [1]; [10]): 2e-07 M
IC50 (estrogen receptor [1]; [11]): 2e-07 M
RBA (estrogen receptor [2]; [13]): 150

Uterus/blood ratio ([3]; 3h): 1.6
Uterus/blood ratio ([3]; 6h): 1.5
Uterus/blood ratio ([3]; 24h): 1.2
tissue uptake liver ([3]; n=5, 3h): 5.3 ± 0.84 % injected dose per organ
tissue uptake uterus ([3]; n=5, 3h): 0.5 ± 0.04 % injected dose per organ
tissue uptake liver ([3]; n=5, 6h): 3.0 ± 0.02 % injected dose per organ
tissue uptake liver ([3]; n=5, 24h): 1.7 ± 0.21 % injected dose per organ
tissue uptake uterus ([3]; n=5, 24h): 0.01 ± 0.001 % injected dose per organ
Molecule: CCN(CC)CCOc1ccc(C(=C(CCC[131I])c2ccccc2)c2ccccc2)cc1 (single isomer, unassigned) [^131 I-IMTX (trans)]

tissue uptake at 2 h ([4]; blood, 2h, read-out: BLOOD): 0.033 ± 0.0059 %ID/g
tissue uptake at 4 h ([4]; blood, read-out: BLOOD): 0.045 ± 0.0003 %ID/g
tissue uptake at 2 h ([4]; bone, 2h, read-out: BONE): 0.653 ± 0.135 %ID/g
tissue uptake at 4 h ([4]; bone, read-out: BONE): 0.802 ± 0.0556 %ID/g
tissue uptake at 2 h ([4]; intestine, 2h, read-out: INTESTINE): 0.917 ± 0.306 %ID/g
tissue uptake at 4 h ([4]; intestine, read-out: INTESTINE): 1.1 ± 0.599 %ID/g
tissue uptake at 2 h ([4]; kidney, 2h, read-out: KIDNEY): 0.742 ± 0.0756 %ID/g
tissue uptake at 4 h ([4]; kidney, read-out: KIDNEY): 0.796 ± 0.03 %ID/g
tissue uptake at 2 h ([4]; liver, 2h, read-out: LIVER): 4.54 ± 0.505 %ID/g
tissue uptake at 4 h ([4]; liver, read-out: LIVER): 4.21 ± 0.44 %ID/g
tissue uptake at 2 h ([4]; muscle, 2h, read-out: MUSCLE): 0.151 ± 0.0203 %ID/g
tissue uptake at 4 h ([4]; muscle, read-out: MUSCLE): 0.183 ± 0.0015 %ID/g
tissue uptake at 2 h ([4]; uterus, 2h, read-out: UTERUS): 0.426 ± 0.0177 %ID/g
tissue uptake at 4 h ([4]; uterus, read-out: UTERUS): 0.4 ± 0.0312 %ID/g
Molecule: CCN(CC)CCOc1ccc(C(=C(CCC[18F])c2ccccc2)c2ccccc2)cc1 [N,N-DIETHYL-[^18F]FLUOROMETHYLTAMOXIFEN]
BLOOD [4, 14]: 0.048±0.0066 % OF INJECTED DOSE/GRAM OF TISSUE WEIGHT
BONE [4, 14]: 0.576±0.1268 % OF INJECTED DOSE/GRAM OF TISSUE WEIGHT
INTESTINE [4, 14]: 0.742±0.458 % OF INJECTED DOSE/GRAM OF TISSUE WEIGHT
KIDNEY [4, 14]: 0.742±0.1451 % OF INJECTED DOSE/GRAM OF TISSUE WEIGHT
LIVER [4, 14]: 4.451±1.1559 % OF INJECTED DOSE/GRAM OF TISSUE WEIGHT
MUSCLE [4, 14]: 0.145±0.0446 % OF INJECTED DOSE/GRAM OF TISSUE WEIGHT
UTERUS [4, 14]: 0.297±0.0356 % OF INJECTED DOSE/GRAM OF TISSUE WEIGHT
BLOOD [4, 15]: 0.033±0.0109 % OF INJECTED DOSE/GRAM OF TISSUE WEIGHT
BONE [4, 15]: 0.644±0.0656 % OF INJECTED DOSE/GRAM OF TISSUE WEIGHT
INTESTINE [4, 15]: 0.504±0.1784 % OF INJECTED DOSE/GRAM OF TISSUE WEIGHT
KIDNEY [4, 15]: 0.530±0.0752 % OF INJECTED DOSE/GRAM OF TISSUE WEIGHT
LIVER [4, 15]: 3.849±0.4069 % OF INJECTED DOSE/GRAM OF TISSUE WEIGHT
MUSCLE [4, 15]: 0.109±0.0218 % OF INJECTED DOSE/GRAM OF TISSUE WEIGHT
UTERUS [4, 15]: 0.248±0.0535 % OF INJECTED DOSE/GRAM OF TISSUE WEIGHT

Molecule: CCN(CC)CCOc1ccc(/C(=C(/CCCO)c2ccccc2)c2ccccc2)cc1 [III (trans), N,N-diethyl-hydroxymethyltamoxifen]
IC50 (MCF7; [6]): 22 µM
RP (MCF7; [8]): 50
Ki (estrogen receptor [1]): 3.5 µM
IC50 (estrogen receptor [1]; [9]): 7e-06 M
IC50 (estrogen receptor [1]; [10]): 7e-06 M
IC50 (estrogen receptor [1]; [11]): 7e-06 M
RBA (estrogen receptor [2]): 4
RBA* (estrogen receptor [2]): 400

Molecule: Fluorotamoxifen [Compound VII (Trans)]
IC50 (MCF7; [16]): 11.8 µM
RP (MCF7; [17]): 93

Molecule: CCN(CC)CCOc1ccc(/C(=C(\CCCBr)c2ccccc2)c2ccccc2)cc1 [Compound XI (Cis), 1-[4-(2-Diethylaminoethoxy)phenyl]-1,2-diphenyl-5-bromo-1-entene]
IC50 (MCF7; [12]): 0.62 µM
RP (MCF7; [8]): 2355
IC50 (estrogen receptor [1]; [10]): 8e-07 M
IC50 (estrogen receptor [1]; [11]): 8e-07 M
RBA (estrogen receptor [2]; [13]): 37.5

Molecule: CCN(CC)CCOc1ccc(/C(=C(/CCCI)c2ccccc2)c2ccccc2)cc1 [X (trans)]
IC50 (MCF7; [6]): 6.3 µM
IC50 (MCF7; [7]): 6.3 µM
RP (MCF7; [8]): 175
Ki (estrogen receptor [1]): 1 µM
IC50 (estrogen receptor [1]; [9]): 2e-06 M
IC50 (estrogen receptor [1]; [10]): 2e-06 M
IC50 (estrogen receptor [1]; [11]): 2e-06 M
RBA (estrogen receptor [2]): 15
RBA* (estrogen receptor [2]): 1,500
fold higher affinity for the estrogen receptor than native tamoxifen (estrogen receptor [2]): 15 fold
Ki (estrogen receptor [2]): 1 µM

IC50 (estrogen receptor [1]; [10]): 4e-06 M
IC50 (estrogen receptor [1]; [11]): 4e-06 M
RBA (estrogen receptor [2]): 7.5
Molecule: CCN(CC)CCOc1ccc(/C(=C(\CCCCl)c2ccccc2)c2ccccc2)cc1 [Compound XII (Cis), 1[4-(2-Diethylaminoethoxy)phenyl]-1,2-diphenyl-5-chloro-1-pentene]
RP (MCF7; [8]): 335

Molecule: CCN(CC)CCOc1ccc(/C(=C(/CCCI)c2ccccc2)c2ccccc2)cc1 [Compound X]
uterus to muscle ratio [5]: 3.6
IC50 (estrogen receptor [1]; [11]): 2e-06 M
fold higher affinity for the estrogen receptor than native tamoxifen (estrogen receptor [2]): 10-15 fold

Molecule: CCN(CC)CCOc1ccc(C(=C(CCCBr)c2ccccc2)c2ccccc2)cc1 [Compound XI, 1-[4-(2-Diethylaminoethoxy)phenyl]-1,2-diphenyl-5-bromo-1-entene]
IC50 (estrogen receptor [1]; IC-50, text value, Example 5): 2e-07 M
IC50 (estrogen receptor [1]; [11]): 2e-07 M

IC50 (MCF7; Table 6, 72 hour exposure, average of three experiments, read-out: IC50 Dose): 10 µM
RBA (estrogen receptor [2]): 75
Molecule: CCN(CC)CCOc1ccc(/C(=C(/CCCCl)c2ccccc2)c2ccccc2)cc1 [Compound XII (trans), 1[4-(2-Diethylaminoethoxy)phenyl]-1,2-diphenyl-5-chloro-1-pentene]
RP (MCF7; [8]): 146

IC50 (MCF7; [6]): 11.8 µM
IC50 (MCF7; [7]): 11.8 µM
Molecule: CCN(CC)CCOc1ccc(/C(=C(/CCCF)c2ccccc2)c2ccccc2)cc1 [Compound VI (trans)]
RP (MCF7; [8]): 93

Molecule: Fluorotamoxifen [Compound VII (Cis)]
IC50 (MCF7; [16]): 4.5 µM
RP (MCF7; [17]): 224

Molecule: CCN(CC)CCOc1ccc(C(=C(CCF)c2ccccc2)c2ccccc2)cc1 (single isomer, unassigned) [Compound IV (Trans), N,N-diethyl-fluorotamoxifen]
RP (MCF7): 82

IC50 (MCF7; [6]): 4.5 µM
IC50 (MCF7; [7]): 4.5 µM
Molecule: CCN(CC)CCOc1ccc(/C(=C(\CCCF)c2ccccc2)c2ccccc2)cc1 [VI (Cis), N,N-diethyl-fluoromethyltamoxifen]
RP (MCF7; [8]): 244

IC50 (estrogen receptor [1]; [11]): 4e-07 M
Molecule: CCN(CC)CCOc1ccc(/C(=C(/CCCCl)c2ccccc2)c2ccccc2)cc1 [Compound XII, 1[4-(2-Diethylaminoethoxy)phenyl]-1,2-diphenyl-5-chloro-1-pentene]

IC50 (MCF7; [6]): 16.7 µM
Ki (estrogen receptor [1]): 5 µM
IC50 (estrogen receptor [1]; [9]): 1e-05 M
IC50 (estrogen receptor [1]; [10]): 1e-05 M
IC50 (estrogen receptor [1]; [11]): 1e-05 M
RBA (estrogen receptor [2]): 3
RBA* (estrogen receptor [2]): 300
Molecule: CCN(CC)CCOc1ccc(/C(=C(\CCCO)c2ccccc2)c2ccccc2)cc1 [III (Cis), N,N-diethyl-hydroxymethyltamoxifen]
RP (MCF7; [8]): 66

Molecule: CCN(CC)CCOc1ccc(C(=C(CCF)c2ccccc2)c2ccccc2)cc1 (single isomer, unassigned) [Compound IV (Cis), N,N-diethyl-fluorotamoxifen]
RP (MCF7): 268
